Assay [1] concerns FRT-TMEM16Aabc cells. Kind of assay: Intracellular Ca2+ measurement (Calcium6), FRT-TMEM16Aabc cells. In kind it is cell-based. Particulars: 10 min pre-treatment. As for the experimental part: CF-HBE cultured at air-liquid interface for 14–21 days were pre-treated with IL-13 (10 ng/mL; 48 h). CF-HBE were then loaded with the Ca^2+-sensitive fluorescent reporter dye, Calcium6 for 120 min at 37°C in Hanks balanced salt solution (HBSS) buffered with 20 mM HEPES (pH 7.4). […] The direct effects of apically administered TMEM16A blockers on [Ca^2+]i as well as effects on the subsequent responses to UTP were measured using a PHERAstar plate reader (BMG Lab Tech, United Kingdom). Equivalent measurements were performed in FRT-TMEM16Aabc cells that had been cultured in 96 well, clear bottom plastic plates and loaded with Calcium6 using the same protocol.

Assay [2] deals with T1, hTMEM16Aabc (Homo sapiens, UniProt Q5XXA6, DEL476-501).
T1 construct: expressed in transfected cells
T1 sequence (Q5XXA6 with tags, fused parts or gaps isoform Q5XXA6-5 DEL539-564): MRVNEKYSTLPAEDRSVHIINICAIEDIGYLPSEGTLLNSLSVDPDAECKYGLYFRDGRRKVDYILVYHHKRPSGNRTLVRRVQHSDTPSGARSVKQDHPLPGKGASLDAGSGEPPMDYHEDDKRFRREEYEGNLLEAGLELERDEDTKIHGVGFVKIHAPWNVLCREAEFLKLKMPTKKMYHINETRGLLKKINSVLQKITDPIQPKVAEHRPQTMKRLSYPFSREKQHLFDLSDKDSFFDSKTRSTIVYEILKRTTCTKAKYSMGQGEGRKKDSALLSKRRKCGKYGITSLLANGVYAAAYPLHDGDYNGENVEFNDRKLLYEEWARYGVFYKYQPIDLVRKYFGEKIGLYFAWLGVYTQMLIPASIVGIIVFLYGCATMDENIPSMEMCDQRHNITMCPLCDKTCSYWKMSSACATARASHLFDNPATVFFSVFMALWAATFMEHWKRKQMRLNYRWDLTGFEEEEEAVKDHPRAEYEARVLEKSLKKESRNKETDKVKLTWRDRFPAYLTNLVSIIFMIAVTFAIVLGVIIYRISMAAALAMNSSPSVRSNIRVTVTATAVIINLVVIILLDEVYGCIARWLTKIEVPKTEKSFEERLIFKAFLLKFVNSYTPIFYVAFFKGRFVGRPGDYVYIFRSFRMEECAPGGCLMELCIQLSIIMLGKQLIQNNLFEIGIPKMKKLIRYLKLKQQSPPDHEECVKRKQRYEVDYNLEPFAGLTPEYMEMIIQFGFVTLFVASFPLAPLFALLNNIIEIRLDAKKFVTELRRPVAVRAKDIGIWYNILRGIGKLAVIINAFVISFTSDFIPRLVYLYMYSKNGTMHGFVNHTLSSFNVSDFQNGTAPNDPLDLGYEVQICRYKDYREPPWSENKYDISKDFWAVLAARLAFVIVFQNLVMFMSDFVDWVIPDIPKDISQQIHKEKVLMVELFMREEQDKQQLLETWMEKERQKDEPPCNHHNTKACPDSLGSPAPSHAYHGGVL
Kind of assay: Whole-cell patch clamp (QPatch), FRT-hTMEM16Aabc cells. It counts as cell-based. The settings on record: for IC50: [Ca2+]i clamped at 415 nM. As to the method:
Current rectification ratios were calculated by dividing the magnitude of the outward current at +90 mV by the magnitude of the inward current at −90 mV.
On the technique in general: In patch-clamp work, channel activity is measured electrically.

The target of assay [3] is T2, hTMEM16Aacd (Homo sapiens, UniProt Q5XXA6).
T2 construct: expressed in transfected cells; host or cells: HEK cells
T2 sequence (Q5XXA6 1-986): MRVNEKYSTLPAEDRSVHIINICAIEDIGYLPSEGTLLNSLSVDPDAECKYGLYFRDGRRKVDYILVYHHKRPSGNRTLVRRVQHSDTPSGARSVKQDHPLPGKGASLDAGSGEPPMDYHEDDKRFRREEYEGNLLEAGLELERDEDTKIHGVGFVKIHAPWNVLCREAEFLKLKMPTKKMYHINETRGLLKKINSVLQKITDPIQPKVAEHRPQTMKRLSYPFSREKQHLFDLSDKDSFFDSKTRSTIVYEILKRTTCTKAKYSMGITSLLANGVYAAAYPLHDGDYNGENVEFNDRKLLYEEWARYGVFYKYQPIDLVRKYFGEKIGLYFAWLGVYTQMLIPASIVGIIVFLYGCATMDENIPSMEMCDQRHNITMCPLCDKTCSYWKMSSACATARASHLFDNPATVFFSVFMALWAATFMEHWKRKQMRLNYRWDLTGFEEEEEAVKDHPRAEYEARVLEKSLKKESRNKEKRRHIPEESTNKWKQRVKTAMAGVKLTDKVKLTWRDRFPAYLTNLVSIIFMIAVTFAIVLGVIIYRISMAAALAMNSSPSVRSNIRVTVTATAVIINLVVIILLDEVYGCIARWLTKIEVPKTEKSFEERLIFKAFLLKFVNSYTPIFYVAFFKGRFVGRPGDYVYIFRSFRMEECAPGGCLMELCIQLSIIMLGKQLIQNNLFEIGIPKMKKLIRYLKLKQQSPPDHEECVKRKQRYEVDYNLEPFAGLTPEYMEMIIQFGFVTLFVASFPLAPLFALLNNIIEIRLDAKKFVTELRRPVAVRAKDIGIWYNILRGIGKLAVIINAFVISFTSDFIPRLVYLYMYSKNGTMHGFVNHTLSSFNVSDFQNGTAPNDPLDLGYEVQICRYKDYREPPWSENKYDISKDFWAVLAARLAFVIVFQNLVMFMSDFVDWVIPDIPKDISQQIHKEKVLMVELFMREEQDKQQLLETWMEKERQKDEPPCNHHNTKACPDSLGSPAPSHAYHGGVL
Briefly: Whole-cell patch clamp (QPatch), HEK-hTMEM16Aacd cells. In kind it is cell-based. As to the method: Whole-cell voltage-clamp recordings from FRT-hTMEM16Aabc, HEK-hTMEM16Aacd, and HEK293 cells were made using the QPatch planar patch clamp system as described previously ([Bill et al., 2015]; [Danahay et al, 2020a]). TMEM16A currents were assessed using chloride selective solutions with calculated free [Ca^2+]i tightly buffered at either 415 or 0 nM. Current rectification ratios were calculated by dividing the magnitude of the outward current at +90 mV by the magnitude of the inward current at −90 mV.

For assay [4], the system named is panel of 22 functional GPCR assays. Kind of assay: SelectScreen cell-based GPCR assay panel. Particulars: 10 µM. The source says: Profiling of compound activity versus a select panel of diverse GPCRs was undertaken by ThermoFisher Scientific (United Kingdom) via their SelectScreen cell-based GPCR assay panel. Detailed experimental protocols on this assay platform can be found at (https://www.thermofisher.com/content/dam/LifeTech/migration/en/filelibrary/services/discovery-research/pdfs.par.36410.file.dat/sscg-brochure.pdf). Briefly these assays detect agonist or antagonist activity using cell lines with the GPCR of interest over-expressed, driving the expression of a reporter gene encompassing a mammalian-optimized Beta-lactamase. Test compounds are incubated with the specific cell lines at the defined final concentration for 5 or 16 h (depending on the cell line specifics) before quantification of effect.

Molecules are shown by their SMILES. Read-outs that look alike come from different tables or passages of the source.

The text below walks through data of publication PMC10025480 (Frontiers in Pharmacology, 2023).

The term IC50 denotes the point on the concentration scale where inhibition reaches its midpoint. By inhibition is commonly meant how much of the control response was suppressed.

With `O=C(Nc1ccc([N+](=O)[O-])cc1Cl)c1cc(Cl)ccc1O` [niclosamide], the “UTP-stimulated increase in [Ca2+]i” value in assay [1] is listed as “significantly attenuated”. For the same compound, in assay [2] (30 µM, vehicle −12.3 ± 2.0 mV), the current reversal potential was −29.8 ± 1.3 mV. Besides, the “effect on TMEM16Aabc currents” value in assay [2] (bell-shaped response, [Ca2+]i 415 nM) is reported as “potentiation of currents at concentrations up to 1.1 µM”. In addition, the “effect on TMEM16Aacd currents” value in assay [3] (HEK cells, [Ca2+]i clamped at 415 nM, bell shaped concentration response) was “enhancement of currents at low µM”. For the same compound, the EC50 in assay [3] (HEK-TMEM16Aacd cells, [Ca2+]i clamped to 0 nM (TMEM16A not activated), read-out: EC50, concentration-dependent increase in current) was found to be 2700 ± 300 nM. Also, the “reversal potential of induced current” value in assay [3] ([Ca2+]i clamped to 0 nM) is reported as “approximately −50 mV”. In assay [4], the “number of GPCRs inhibited by ≥ 50%” value is on record as 11.

For the compound `CCc1oc2ccccc2c1C(=O)c1cc(Br)c(O)c(Br)c1` [benzbromarone], the “UTP-stimulated increase in [Ca2+]i” value in assay [1] was “significantly attenuated”. Besides, the IC50 was determined as 3050 ± 586 nM in assay [2] (IC50 (printed in Figure 1, concentration-response curves), hTMEM16Aabc currents in FRT cells); 3000 ± 600 nM in assay [2] (IC50, inhibition of TMEM16Aabc currents, assessed at +90 mV, FRT cells); 1300 ± 300 nM in assay [2] (at −90 mV, FRT cells, read-out: IC50, inhibition of TMEM16Aabc currents). In addition, the inhibition at 30 µM in assay [2] (highest concentration tested, 30 µM, [Ca2+]i 415 nM, read-out: inhibition of TMEM16Aabc current) amounted to 96%. The “number of GPCRs inhibited by ≥ 50%” value in assay [4] came to 6.
